Test results taken from patent publication US20100249439A1, “PROCESS FOR CONTROLLED CRYSTAL SIZE IN 1,2-SUBSTITUTED 3,4-DIOXO-1-CYCLOBUTENE COMPOUNDS” (priority 2007, published 2010).

Test: Specific cake resistance measurement (pressure filtration of crystal slurry, Tiller equation)
Assay type: physicochemical
Procedure: There follows examples of the present invention controlled crystallization process yielding crystalline material having improved filter cake specific resistance. For each of these examples, the filter cake specific resistance was measured in accordance with the following procedure. Specific Cake Resistance Measurement Procedure V(i): Into a pressure filter, the crystal slurry was filled. The filtration was then carried out under a constant pressure while the filtrate volume along with the filtration time was logged. During the cake formation, the relationship between the filtrate volume and the filtration time can be described by the Tiller equation: [formula] where: μ is the viscosity of filtrate, lb/ft-s or Pa·s; α is a specific cake resistance, ft, lb or […]; c is the mass solid deposited in the filter per unit volume of filtrate, lb/ft^3 or kg/m^3: A is the filtration area, ft^2 or m^2; gc is Newton's law proportionality factor; p is the pressure, lbf/ft2 or atm; Rm is the filter-medium resistance, ft^−1 or m^−1. The specific cake resistance a can be calculated from the slope of the linear plot of t/V vs. V.

Structure (SMILES): CC[C@@H](Nc1c(Nc2cccc(C(=O)N(C)C)c2O)c(=O)c1=O)c1ccc(C)o1 [compound of Formula I, 2-Hydroxy-N,N-dimethyl-3-[[2-[[1(R)-(5-methyl-2-furanyl)propyl]amino]-3,4-dioxo-1-cyclobuten-1-yl]amino]benzamide]
- filter cake specific resistance (Form 4 crystals precipitated from the reaction mixture of Scheme IIa steps a and b, conventional crystallization without temperature cycling): about 8.0×10^11 m/kg
- filter cake specific resistance (Form 4 monohydrate crystals from n-propanol/water after seeding and temperature cycling (Va: 4 cycles 53-20° C.; Vb: 8 cycles; Vc: 19 cycles 43-20° C.), listed as Example Va): 6.4×10^11 m/Kg
- filter cake specific resistance (Form 4 monohydrate crystals from n-propanol/water after seeding and temperature cycling (Va: 4 cycles 53-20° C.; Vb: 8 cycles; Vc: 19 cycles 43-20° C.), listed as Example Vb): 2.5×10^11 m/Kg
- filter cake specific resistance (Form 4 monohydrate crystals from n-propanol/water after seeding and temperature cycling (Va: 4 cycles 53-20° C.; Vb: 8 cycles; Vc: 19 cycles 43-20° C.), listed as Example Vc): 1.99×10^11 m/Kg
